Assay [1] has as its target GST-tagged human ROCK1 catalytic domain 1-477 (Homo sapiens (Human), UniProt Q13464). Briefly: Inhibition of Rho-associated protein kinase isoform 1 (LANCE Ultra ULight-CREBtide FRET kinase assay). It is filed as biochemical. The settings on record: 30 μM was the highest concentration analyzed. How it is done:
(§1) Exemplary compounds were tested for ability to inhibit Rho-associated protein kinase isoform 1 (ROCK1) and Rho-associated protein kinase isoform 2 (ROCK2). Assay procedures and results are described below.
(§2) Protein constructs were purified from a baculovirus expression system. The peptide substrate was fluorescent LANCE® Ultra ULight-CREBtide: […] (PerkinElmer, # TRF0107-D). […] After a 90 minute incubation at room temperature on a shaker table, the kinase reaction was stopped by addition of 10 mM EDTA, and phosphorylation of the substrate was detected by adding 1 nM LANCE® Ultra Europium-anti-phospho-CREB (ser133) antibody (PerkinElmer, # TRF0200-D) and incubating for 60 minutes on a shaker at room temperature. The flurorescence resonance energy transfer (FRET) signals were read and analyzed on an Envision™ 2103 Multilabel Reader (Perkin Elmer).

The target of assay [2] is GST-tagged human ROCK2 catalytic domain 1-553 (Homo sapiens (Human), UniProt O75116). The assay can be described thus: Inhibition of Rho-associated protein kinase isoform 2 (LANCE Ultra ULight-CREBtide FRET kinase assay). It is filed as biochemical. The settings on record: for IC50: 30 μM was the highest concentration analyzed; for Selectivity for ROCK2 over ROCK1 (IC50 ROCK1 / IC50 ROCK2): selectivity ROCK2 vs ROCK1. On the procedure:
as §1, §2

GST-tagged human ROCK1 catalytic domain 1-477, sequence (Q13464 1-477): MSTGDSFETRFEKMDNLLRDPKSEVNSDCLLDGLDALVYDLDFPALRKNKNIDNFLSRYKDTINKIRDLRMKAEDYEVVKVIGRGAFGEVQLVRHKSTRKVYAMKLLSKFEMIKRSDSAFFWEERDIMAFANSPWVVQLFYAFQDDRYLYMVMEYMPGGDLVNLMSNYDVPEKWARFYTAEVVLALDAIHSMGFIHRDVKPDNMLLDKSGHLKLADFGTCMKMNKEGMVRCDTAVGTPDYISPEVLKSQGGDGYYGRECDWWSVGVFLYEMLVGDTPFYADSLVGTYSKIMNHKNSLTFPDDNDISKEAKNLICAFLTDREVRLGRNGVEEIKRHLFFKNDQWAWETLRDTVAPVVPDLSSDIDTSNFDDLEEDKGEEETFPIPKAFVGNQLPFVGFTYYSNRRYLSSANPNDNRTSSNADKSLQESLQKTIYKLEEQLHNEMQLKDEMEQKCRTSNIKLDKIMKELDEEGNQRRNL
GST-tagged human ROCK2 catalytic domain 1-553, sequence (O75116 1-553): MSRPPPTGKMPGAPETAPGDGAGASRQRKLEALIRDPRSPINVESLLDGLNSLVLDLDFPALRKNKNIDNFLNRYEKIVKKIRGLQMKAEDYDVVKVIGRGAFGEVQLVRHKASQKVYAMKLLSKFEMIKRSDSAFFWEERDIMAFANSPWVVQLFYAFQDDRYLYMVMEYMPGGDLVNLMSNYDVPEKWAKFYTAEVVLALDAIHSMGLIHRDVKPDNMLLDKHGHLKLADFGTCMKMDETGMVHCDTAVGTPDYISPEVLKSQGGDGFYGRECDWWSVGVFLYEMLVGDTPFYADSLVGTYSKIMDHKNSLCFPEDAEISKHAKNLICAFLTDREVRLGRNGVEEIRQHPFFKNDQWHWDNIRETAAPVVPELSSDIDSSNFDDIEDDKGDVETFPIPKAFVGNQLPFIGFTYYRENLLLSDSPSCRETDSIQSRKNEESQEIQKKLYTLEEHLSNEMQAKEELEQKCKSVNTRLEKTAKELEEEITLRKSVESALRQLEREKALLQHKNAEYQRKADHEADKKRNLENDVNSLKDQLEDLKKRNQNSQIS

As usually defined, the IC50 is the concentration that gives 50% inhibition. Low readings indicate higher potency, high ones lower potency. The compound `c1cc(-c2cn[nH]c2)cc(-c2nnc(Nc3ccc4[nH]ncc4c3)s2)c1` [Example A-17] displayed a 50% inhibitory concentration (IC50) in assay [1] greater than 30 µM. Also, in assay [2], the IC50 is less than 1 µM and the “Selectivity for ROCK2 over ROCK1 (IC50 ROCK1 / IC50 ROCK2)” value (“Selectivity … (IC50 ROCK1 / IC50 ROCK2)” for short) was greater than 100.
Turning to `Cn1cccc(-c2nnc(Nc3ccc4[nH]ncc4c3Cl)s2)c1=O.O=C(O)C(F)(F)F` [Example 56H], the concentration for half-maximal inhibition (IC50) in assay [1] is greater than 30 µM. Moreover, in assay [2], the IC50 is less than 1 µM and the “Selectivity … (IC50 ROCK1 / IC50 ROCK2)” value is listed as greater than 100.
In assay [1], `CC(C)C[C@H](N)C(=O)Nc1cccc(-c2nnc(Nc3ccc4[nH]ncc4c3Cl)s2)c1` [Example 35BA] displayed a half-inhibitory concentration (IC50) of less than 1 µM. Moreover, in assay [2], the half-inhibitory concentration (IC50) was less than 1 µM and the “Selectivity … (IC50 ROCK1 / IC50 ROCK2)” value was greater than 5.
As to `Cn1cc(C(=O)Nc2cc(-c3nnc(Nc4ccc5[nH]ncc5c4)s3)ccn2)cn1` [Example 75I], the half-maximal inhibitory concentration (IC50) in assay [1] is less than 1 µM. In assay [2], the 50% inhibitory concentration (IC50) is less than 1 µM and the “Selectivity … (IC50 ROCK1 / IC50 ROCK2)” value is less than 5.
Consider `CC(=O)Nc1cc(-c2nnc(Nc3ccc4[nH]ncc4c3Cl)s2)ccc1C(F)(F)F` [Example 48O], for which the IC50 in assay [1] was greater than 30 µM; in assay [2], less than 1 µM. Further, the “Selectivity … (IC50 ROCK1 / IC50 ROCK2)” value in assay [2] was greater than 100.
For `Cn1cc(C(=O)Nc2cccc(-c3nnc(Nc4ccc5[nH]ncc5c4)s3)c2)cn1` [Example A-41] the same measures were greater than 30 µM, less than 1 µM and greater than 100.
In turn, `O=C(O)Cn1cc(C(=O)Nc2cc(F)c(F)c(-c3nnc(Nc4ccc5[nH]ncc5c4)s3)c2)cn1` [Example 35AY] registered a half-inhibitory concentration (IC50) in assay [1] greater than 30 µM. Besides, in assay [2], the concentration for half-maximal inhibition (IC50) is less than 1 µM and the “Selectivity … (IC50 ROCK1 / IC50 ROCK2)” value is listed as greater than 75.
For `Cn1c(C2CCOCC2)nc2c(-c3nnc(Nc4ccc5[nH]ncc5c4)s3)cccc21` [Example 56F] the same measures were greater than 30 µM, less than 1 µM and greater than 100.
For `O=C(Cc1ncccn1)Nc1cccc(-c2nnc(Nc3ccc4[nH]ncc4c3Cl)s2)c1` [Example 35AP] the same measures were less than 1 µM, less than 1 µM and less than 5.
For `CC(=O)Nc1cc(CC(=O)O)cc(-c2nnc(Nc3ccc4[nH]ncc4c3Cl)s2)c1` [Example 75S] the same measures were less than 1 µM, less than 1 µM and greater than 5.
As to `CNCc1ccc(C(=O)Nc2cccc(-c3nnc(Nc4ccc5[nH]ncc5c4)s3)c2)cn1` [Example 75K], the IC50 in assay [1] was less than 1 µM. Besides, in assay [2], the concentration for half-maximal inhibition (IC50) was less than 1 µM and the “Selectivity … (IC50 ROCK1 / IC50 ROCK2)” value is on record as greater than 5.
In assay [1], `Cc1coc(-c2cccc(-c3nnc(Nc4ccc5[nH]ncc5c4Cl)s3)c2)n1` [Example 46C] came in with an IC50 of less than 1 µM. In assay [2], the IC50 was less than 1 µM and the “Selectivity … (IC50 ROCK1 / IC50 ROCK2)” value is reported as greater than 5.
In the case of `c1cc2[nH]ncc2cc1Nc1nnc(C2CCCNC2)s1` (centres unmarked) [Example A-33], the values for the IC50 in assay [1] and in assay [2] were 15 to 30 µM and 1 to 15 µM, respectively. Moreover, the “Selectivity … (IC50 ROCK1 / IC50 ROCK2)” value in assay [2] is less than 5.
For `Nc1nc(-c2nnc(Nc3ccc4[nH]ncc4c3Cl)s2)c[nH]1` [Example 75W] the same measures were less than 1 µM, less than 1 µM and less than 5.
In assay [2], `CCOC(=O)N(c1nnc(-c2cccc(NC(=O)Cc3ccc(F)cc3)c2)s1)c1ccc2[nH]ncc2c1Cl` [Example 54A] displayed a 50% inhibitory concentration (IC50) of 1 to 15 µM.
Take `CN1CC(C(=O)Nc2cccc(-c3nnc(Nc4ccc5[nH]ncc5c4Cl)s3)c2)C1` [Example 35X]: the concentration for half-maximal inhibition (IC50) in assay [1] lay within 1 to 15 µM.
As to `Clc1c(Nc2nnc(-c3cccc4c3ncn4CCN3CCCC3)s2)ccc2[nH]ncc12` [Example 56A], the half-inhibitory concentration (IC50) in assay [2] was in the range of 1 to 15 µM.
`O=C(Nc1cccc(-c2nnc(Nc3ccc4[nH]ncc4c3Cl)s2)c1)C1CCNCC1` [Example 35AC] returned an IC50 in assay [1] of 1 to 15 µM.
The same measure, in the same setting: the figure for `CC1(C(=O)Nc2cccc(-c3nnc(Nc4ccc5[nH]ncc5c4Cl)s3)c2)CCCCC1` [Example 35L] is 1 to 15 µM.

Source of the values: patent US10112935B2, “Indazolyl thiadiazolamines and related compounds for inhibition of Rho-associated protein kinase and the treatment of disease” (Lycera Corporation, priority 2015, dated 2018).
